From ChEMBL document CHEMBL1201862, “PubChem BioAssay data set” (2004)
One block for each compound: values may come before it. Calls of active or inactive are those of the source.

Columns and labels:
[1] = target: T1, Short transient receptor potential channel 4 (Mus musculus, UniProt Q9QUQ5); assay: potentiation of DAMGO-evoked TRPC4 calcium signal – cell-based, HEK293 TRPC4/mu-opioid, Fluo-4 calcium, EC20 DAMGO, dose response (AID 434941); type: functional
T1 sequence (Q9QUQ5 whole entry): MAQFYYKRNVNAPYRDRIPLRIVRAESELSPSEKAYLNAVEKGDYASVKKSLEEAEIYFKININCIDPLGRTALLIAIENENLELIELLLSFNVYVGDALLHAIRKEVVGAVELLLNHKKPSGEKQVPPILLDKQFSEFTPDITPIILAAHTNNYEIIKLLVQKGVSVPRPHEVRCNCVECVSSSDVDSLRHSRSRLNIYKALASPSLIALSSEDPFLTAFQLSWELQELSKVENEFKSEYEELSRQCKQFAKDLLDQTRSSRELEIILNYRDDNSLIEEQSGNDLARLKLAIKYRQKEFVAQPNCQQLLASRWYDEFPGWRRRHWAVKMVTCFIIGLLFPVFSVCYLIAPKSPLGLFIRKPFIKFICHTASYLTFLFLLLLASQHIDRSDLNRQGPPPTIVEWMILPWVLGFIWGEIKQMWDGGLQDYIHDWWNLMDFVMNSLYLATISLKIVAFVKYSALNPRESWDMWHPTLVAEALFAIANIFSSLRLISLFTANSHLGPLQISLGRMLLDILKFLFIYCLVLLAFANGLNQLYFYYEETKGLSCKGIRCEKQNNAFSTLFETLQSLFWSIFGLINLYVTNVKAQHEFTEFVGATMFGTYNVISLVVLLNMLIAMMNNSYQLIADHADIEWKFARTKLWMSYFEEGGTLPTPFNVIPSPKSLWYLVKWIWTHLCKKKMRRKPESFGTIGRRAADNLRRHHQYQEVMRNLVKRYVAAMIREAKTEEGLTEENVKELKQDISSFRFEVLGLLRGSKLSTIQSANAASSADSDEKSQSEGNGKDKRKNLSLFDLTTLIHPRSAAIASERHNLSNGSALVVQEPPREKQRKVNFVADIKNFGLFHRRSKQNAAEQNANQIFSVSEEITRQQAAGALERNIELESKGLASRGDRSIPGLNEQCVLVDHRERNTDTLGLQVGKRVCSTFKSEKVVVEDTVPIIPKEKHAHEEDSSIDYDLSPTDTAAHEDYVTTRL

[2] = target: T2, Mannose-6-phosphate isomerase (Homo sapiens, UniProt P34949); assay: phosphomannose isomerase inhibition – biochemical, fluorescence intensity, confirmation (AID 1535)
T2 sequence (P34949 whole entry): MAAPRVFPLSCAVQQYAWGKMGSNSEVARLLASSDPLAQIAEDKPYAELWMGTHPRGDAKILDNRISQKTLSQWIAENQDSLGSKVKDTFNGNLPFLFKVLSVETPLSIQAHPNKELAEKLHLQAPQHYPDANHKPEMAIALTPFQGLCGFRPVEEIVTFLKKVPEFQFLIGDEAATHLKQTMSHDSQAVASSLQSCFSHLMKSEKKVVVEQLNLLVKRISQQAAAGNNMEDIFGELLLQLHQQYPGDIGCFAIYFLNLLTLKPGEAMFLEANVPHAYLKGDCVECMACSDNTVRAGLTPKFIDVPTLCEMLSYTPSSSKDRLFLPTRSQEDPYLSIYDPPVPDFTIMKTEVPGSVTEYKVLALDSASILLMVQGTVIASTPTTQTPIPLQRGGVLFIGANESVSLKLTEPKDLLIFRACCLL

[3] = target: Alkaline phosphatase, placental type (Homo sapiens, UniProt P05187); assay: human placental alkaline phosphatase inhibition – biochemical, luminescence, confirmation (AID 1512); type: functional
Alkaline phosphatase, placental type, sequence (P05187 whole entry): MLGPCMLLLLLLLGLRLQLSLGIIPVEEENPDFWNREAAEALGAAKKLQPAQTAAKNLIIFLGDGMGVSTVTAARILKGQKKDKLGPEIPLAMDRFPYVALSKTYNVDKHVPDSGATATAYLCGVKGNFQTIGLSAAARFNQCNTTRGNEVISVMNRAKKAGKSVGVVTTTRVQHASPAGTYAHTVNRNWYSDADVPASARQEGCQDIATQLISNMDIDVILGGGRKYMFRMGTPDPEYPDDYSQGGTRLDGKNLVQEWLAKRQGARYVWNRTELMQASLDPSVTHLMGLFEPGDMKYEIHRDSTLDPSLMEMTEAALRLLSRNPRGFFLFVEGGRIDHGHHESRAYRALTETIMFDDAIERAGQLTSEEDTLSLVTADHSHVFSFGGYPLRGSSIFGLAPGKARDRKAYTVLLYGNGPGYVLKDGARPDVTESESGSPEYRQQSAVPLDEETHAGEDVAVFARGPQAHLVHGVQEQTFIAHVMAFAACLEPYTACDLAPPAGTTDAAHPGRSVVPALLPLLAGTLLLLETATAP

[4] = target: T2, Mannose-6-phosphate isomerase; assay: Confirmation of compounds inhibiting phosphomannose isomerase (PMI) via a fluorescence intensity assay using a high concentration of mannose 6-phosphate. [Related pubchem assays (depositor defined):AID1209, AID1220, AID1545, AID1553, AID1620]
[5] = target: Envelope glycoprotein gp160 (Human immunodeficiency virus 1, UniProt Q6QLK5); assay: cell-free HIV fusion peptide-binding blockers – biochemical, uHTS, fluorescence dequenching, […] (AID 1986)
Envelope glycoprotein gp160, sequence (Q6QLK5 whole entry, the tested form may be a part): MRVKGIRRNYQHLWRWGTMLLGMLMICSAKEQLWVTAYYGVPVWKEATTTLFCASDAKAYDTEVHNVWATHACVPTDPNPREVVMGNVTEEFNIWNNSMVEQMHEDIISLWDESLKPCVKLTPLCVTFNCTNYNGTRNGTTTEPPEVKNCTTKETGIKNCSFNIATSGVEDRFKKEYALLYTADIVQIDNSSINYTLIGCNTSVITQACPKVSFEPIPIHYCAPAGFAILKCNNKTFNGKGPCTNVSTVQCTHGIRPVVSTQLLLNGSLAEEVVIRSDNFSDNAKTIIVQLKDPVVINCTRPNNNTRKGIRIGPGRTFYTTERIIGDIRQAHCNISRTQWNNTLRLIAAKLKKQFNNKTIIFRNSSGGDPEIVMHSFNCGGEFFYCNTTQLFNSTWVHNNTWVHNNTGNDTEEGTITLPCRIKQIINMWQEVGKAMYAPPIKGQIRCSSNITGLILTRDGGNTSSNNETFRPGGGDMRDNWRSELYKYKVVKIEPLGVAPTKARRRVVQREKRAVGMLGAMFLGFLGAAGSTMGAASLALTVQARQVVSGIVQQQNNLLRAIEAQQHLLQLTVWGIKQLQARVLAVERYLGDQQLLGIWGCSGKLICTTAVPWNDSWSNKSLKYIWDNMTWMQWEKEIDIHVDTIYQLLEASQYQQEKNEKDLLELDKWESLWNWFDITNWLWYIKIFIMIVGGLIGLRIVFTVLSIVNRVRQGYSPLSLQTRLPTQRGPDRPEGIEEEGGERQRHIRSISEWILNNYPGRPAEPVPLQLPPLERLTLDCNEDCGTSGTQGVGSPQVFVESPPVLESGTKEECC

[6] = target: T1, Short transient receptor potential channel 4; assay: block of DAMGO-driven TRPC4 calcium entry – cell-based, HEK293 TRPC4/mu-opioid, Fluo-4 calcium, dose response (AID 434942); type: functional;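 also: potency of inhibitors blocking the TRPC4 calcium response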
[7] = target: Type-1 angiotensin II receptor (Homo sapiens, UniProt P30556); assay: agonist activity at AGTR1 – cell-based, uHTS hits, selectivity assay for APJ receptor agonist project, dose response (AID 488865); type: functional;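 also: beta-arrestin recruitment to AT1 measured by enzyme fragment complementation luminescence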
Type-1 angiotensin II receptor, sequence (P30556 whole entry, the tested form may be a part): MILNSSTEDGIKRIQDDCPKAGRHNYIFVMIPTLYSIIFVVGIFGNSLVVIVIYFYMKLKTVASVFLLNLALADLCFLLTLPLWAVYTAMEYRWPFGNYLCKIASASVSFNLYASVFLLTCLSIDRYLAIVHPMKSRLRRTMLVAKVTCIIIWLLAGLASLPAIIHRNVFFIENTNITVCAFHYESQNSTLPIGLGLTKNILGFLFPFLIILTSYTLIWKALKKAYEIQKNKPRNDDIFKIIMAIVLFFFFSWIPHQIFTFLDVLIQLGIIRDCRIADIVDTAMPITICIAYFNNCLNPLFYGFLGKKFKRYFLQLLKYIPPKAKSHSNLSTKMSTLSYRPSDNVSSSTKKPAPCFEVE

[8] = target: T3, Dual specificity protein phosphatase 6 (Rattus norvegicus, UniProt Q64346); type: functional;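 also: confirmatory in vitro dose-response testing of MKP-3 inhibition; recombinant His-tagged MKP-3 made in E. coli BL21 with OMFP substrate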
T3 sequence (Q64346 whole entry): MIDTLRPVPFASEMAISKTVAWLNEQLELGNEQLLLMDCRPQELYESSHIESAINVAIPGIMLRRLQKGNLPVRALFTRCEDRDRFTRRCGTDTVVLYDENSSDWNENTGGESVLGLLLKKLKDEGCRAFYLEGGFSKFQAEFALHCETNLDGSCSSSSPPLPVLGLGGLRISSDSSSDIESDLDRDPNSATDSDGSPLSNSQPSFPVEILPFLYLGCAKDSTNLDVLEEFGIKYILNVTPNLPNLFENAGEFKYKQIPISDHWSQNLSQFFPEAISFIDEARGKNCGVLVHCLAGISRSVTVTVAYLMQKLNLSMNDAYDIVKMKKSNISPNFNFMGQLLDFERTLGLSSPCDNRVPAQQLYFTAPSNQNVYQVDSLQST

[9] = target: T4, Tyrosine-protein phosphatase non-receptor type 7 (Homo sapiens, UniProt P35236); assay: redox-active compounds inhibiting HePTP phosphatase – biochemical, fluorescence, mechanism study (AID 2068); type: functional
T4 sequence (P35236 whole entry): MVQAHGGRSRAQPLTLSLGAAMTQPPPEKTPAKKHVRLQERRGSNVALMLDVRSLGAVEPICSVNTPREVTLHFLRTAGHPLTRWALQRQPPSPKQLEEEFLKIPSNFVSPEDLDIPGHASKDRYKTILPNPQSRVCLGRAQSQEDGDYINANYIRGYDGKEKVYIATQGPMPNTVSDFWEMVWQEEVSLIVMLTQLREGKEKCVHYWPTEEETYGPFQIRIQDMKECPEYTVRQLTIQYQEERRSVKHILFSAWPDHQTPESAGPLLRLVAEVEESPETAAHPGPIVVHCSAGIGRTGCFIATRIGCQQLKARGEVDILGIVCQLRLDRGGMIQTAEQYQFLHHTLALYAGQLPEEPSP

Cannabinoid receptor 2 [10] = target: T5, Cannabinoid receptor 2 (Homo sapiens, UniProt P34972); assay: SAR analysis of antagonists of the Cannabinoid Receptor 2 using an Image-Based Assay - Set 2. [Related pubchem assays (depositor defined):AID1961, AID1965]; type: functional
T5 sequence (P34972 whole entry): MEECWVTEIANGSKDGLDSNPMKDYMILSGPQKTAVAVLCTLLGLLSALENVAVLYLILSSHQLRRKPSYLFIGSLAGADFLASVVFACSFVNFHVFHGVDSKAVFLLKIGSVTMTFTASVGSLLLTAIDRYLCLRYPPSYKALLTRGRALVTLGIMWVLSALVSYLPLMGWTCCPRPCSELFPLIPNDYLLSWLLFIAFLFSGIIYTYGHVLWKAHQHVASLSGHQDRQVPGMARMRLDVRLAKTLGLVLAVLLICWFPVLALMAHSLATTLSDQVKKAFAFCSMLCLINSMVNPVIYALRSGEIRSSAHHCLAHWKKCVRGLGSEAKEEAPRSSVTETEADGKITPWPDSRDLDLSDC

Cannabinoid receptor 1 [11] = target: T6, Cannabinoid receptor 1 (Homo sapiens, UniProt P21554); assay: SAR analysis of antagonists of the Cannabinoid Receptor 1 using an Image-Based Assay - Set 3. [Related pubchem assays (depositor defined):AID1961, AID1965]; type: functional
T6 sequence (P21554 whole entry): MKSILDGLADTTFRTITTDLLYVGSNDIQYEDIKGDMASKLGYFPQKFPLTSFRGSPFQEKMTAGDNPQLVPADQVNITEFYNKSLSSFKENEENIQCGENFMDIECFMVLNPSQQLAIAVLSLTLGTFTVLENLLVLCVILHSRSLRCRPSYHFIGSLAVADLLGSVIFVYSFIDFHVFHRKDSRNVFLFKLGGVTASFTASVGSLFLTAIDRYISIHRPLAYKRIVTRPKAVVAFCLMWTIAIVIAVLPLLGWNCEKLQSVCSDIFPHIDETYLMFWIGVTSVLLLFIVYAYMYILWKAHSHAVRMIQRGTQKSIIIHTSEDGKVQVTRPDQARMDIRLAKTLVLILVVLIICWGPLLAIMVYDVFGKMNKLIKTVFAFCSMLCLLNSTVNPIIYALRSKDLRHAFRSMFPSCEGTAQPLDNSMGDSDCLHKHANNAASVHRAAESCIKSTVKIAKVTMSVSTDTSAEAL

[12] = target: T7, G-protein coupled receptor 35 (Homo sapiens, UniProt Q9HC97); assay: SAR analysis of Agonists of the GPR35 Receptor using an Image-Based Assay - Set 3. [Related pubchem assays (depositor defined):AID1961, AID1965]; type: functional
T7 sequence (Q9HC97 whole entry): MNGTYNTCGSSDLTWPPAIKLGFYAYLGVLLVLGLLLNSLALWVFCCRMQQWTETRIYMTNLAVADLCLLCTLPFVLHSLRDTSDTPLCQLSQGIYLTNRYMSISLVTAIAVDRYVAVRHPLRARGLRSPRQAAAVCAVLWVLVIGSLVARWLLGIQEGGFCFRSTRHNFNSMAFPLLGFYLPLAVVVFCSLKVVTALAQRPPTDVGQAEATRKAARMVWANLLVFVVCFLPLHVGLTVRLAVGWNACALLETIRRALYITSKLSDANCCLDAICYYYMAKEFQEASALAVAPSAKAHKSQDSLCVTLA

[13] = target: G-protein coupled receptor 55 (Homo sapiens, UniProt Q9Y2T6); assay: SAR analysis of selective Agonists of GPR55 using an Image-Based Assay - Set 2. [Related pubchem assays (depositor defined):AID1961, AID1965]; type: functional
G-protein coupled receptor 55, sequence (Q9Y2T6 whole entry): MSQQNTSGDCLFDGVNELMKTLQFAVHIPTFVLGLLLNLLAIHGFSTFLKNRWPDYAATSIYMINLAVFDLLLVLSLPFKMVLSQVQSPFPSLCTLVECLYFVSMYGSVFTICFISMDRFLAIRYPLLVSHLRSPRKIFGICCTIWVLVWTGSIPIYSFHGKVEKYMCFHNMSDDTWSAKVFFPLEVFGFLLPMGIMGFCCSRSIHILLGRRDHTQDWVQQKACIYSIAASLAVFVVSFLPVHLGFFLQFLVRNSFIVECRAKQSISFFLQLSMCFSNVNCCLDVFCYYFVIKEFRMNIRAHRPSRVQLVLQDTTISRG

Cannabinoid receptor 1 [14] = target: T6, Cannabinoid receptor 1; assay: SAR analysis of agonists of the Cannabinoid Receptor 1 using an Image-Based Assay - Set 3. [Related pubchem assays (depositor defined):AID1961, AID1965]; type: functional
Cannabinoid receptor 2 [15] = target: T5, Cannabinoid receptor 2; assay: SAR analysis of agonists of the Cannabinoid Receptor 2 using an Image-Based Assay - Set 2. [Related pubchem assays (depositor defined):AID1961, AID1965]; type: functional
[16] = target: T7, G-protein coupled receptor 35; assay: SAR analysis of Antagonists of the GPR35 Receptor using an Image-Based Assay - Set 4. [Related pubchem assays (depositor defined):[…]]; type: functional
[17] = target: Delta-type opioid receptor (Homo sapiens, UniProt P41143); assay: SAR Analysis of Antagonists of the DOR Receptor using an Image-Based Assay - Set 3. [Related pubchem assays (depositor defined):AID1777, AID1785]; type: functional;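 also: U2OS cells expressing DOR1 and beta-arrestin GFP stimulated with 100 nM SNC80; imaging of GFP-tagged beta-arrestin moving into spots after receptor activation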
Delta-type opioid receptor, sequence (P41143 whole entry): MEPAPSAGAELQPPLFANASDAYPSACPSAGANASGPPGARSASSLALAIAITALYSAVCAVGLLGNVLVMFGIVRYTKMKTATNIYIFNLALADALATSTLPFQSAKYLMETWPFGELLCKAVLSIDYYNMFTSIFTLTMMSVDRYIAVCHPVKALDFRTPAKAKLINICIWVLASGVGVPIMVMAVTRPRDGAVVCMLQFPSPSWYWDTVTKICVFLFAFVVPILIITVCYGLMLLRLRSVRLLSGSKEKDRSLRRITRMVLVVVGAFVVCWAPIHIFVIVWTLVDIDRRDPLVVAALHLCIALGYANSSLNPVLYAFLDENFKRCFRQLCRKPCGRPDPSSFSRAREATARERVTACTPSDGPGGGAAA

Mu-type opioid receptor = Mu-type opioid receptor (Homo sapiens, UniProt P35372); assay: SAR Analysis of Antagonists of the MOR Receptor using an Image-Based Assay - Set 3. [Related pubchem assays (depositor defined):AID1777, AID1785, AID1786, AID1966, AID2133, AID2136, AID2284, AID2285, AID2420]; type: functional
Mu-type opioid receptor, sequence (P35372 whole entry): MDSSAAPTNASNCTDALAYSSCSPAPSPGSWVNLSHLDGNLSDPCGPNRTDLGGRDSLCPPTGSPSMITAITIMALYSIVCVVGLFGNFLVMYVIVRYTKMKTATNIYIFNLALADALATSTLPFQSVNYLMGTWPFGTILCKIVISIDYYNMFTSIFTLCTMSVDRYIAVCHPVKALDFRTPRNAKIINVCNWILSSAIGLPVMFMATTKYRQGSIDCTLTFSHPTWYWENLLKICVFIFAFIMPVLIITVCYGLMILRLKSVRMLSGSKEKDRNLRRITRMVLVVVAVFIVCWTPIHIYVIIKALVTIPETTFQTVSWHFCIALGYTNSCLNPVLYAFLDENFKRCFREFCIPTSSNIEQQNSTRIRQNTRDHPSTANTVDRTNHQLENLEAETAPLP

[18] = target: T8, Kappa-type opioid receptor (Homo sapiens, UniProt P41145); assay: SAR analysis of Antagonists of the Kappa Opioid Receptor (KOR) using an Image-Based Assay - Set 4. [Related pubchem assays (depositor defined):AID1777, AID1785]; type: functional
T8 sequence (P41145 whole entry): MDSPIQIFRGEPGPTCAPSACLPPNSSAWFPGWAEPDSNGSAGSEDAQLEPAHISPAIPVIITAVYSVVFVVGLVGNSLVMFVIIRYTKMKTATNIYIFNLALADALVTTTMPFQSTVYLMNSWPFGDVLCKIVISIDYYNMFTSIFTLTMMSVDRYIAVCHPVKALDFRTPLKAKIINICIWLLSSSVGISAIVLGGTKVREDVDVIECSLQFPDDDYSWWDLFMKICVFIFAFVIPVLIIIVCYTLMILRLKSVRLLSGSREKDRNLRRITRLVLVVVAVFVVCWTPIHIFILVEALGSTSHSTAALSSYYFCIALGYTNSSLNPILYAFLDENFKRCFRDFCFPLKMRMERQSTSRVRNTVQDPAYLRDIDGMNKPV

[19] = target: T8, Kappa-type opioid receptor; assay: SAR analysis of small molecule antagonists of the kappa opioid receptor via a luminescent beta-arrestin assay - Set 3. [Related pubchem assays (depositor defined):AID1777, AID1778, AID1785, AID1786, AID1966, AID2133, AID2136, AID2285, AID2495]; type: functional
[20] = target: T8, Kappa-type opioid receptor; assay: SAR analysis of small molecule antagonists of the kappa opioid receptor via a luminescent beta-arrestin assay - Set 6. [Related pubchem assays (depositor defined):AID1777, AID1778, AID1785, AID1786, AID1966, AID2133, AID2136, AID2285]; type: functional
[21] = target: DNA damage-inducible transcript 3 protein (Mus musculus, UniProt P35639); type: functional, Cricetulus griseus
DNA damage-inducible transcript 3 protein, sequence (P35639 whole entry): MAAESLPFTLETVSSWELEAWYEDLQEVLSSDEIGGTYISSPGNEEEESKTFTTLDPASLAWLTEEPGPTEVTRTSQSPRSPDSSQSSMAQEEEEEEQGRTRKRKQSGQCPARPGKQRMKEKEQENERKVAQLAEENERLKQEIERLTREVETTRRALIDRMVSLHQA

Coagulation factor XII = target: T9, Coagulation factor XII (Homo sapiens, UniProt P00748); assay: Factor XIIa Dose Response Confirmation from Single Well HTS. [Related pubchem assays (depositor defined):AID701]; type: functional
T9 sequence (P00748 whole entry): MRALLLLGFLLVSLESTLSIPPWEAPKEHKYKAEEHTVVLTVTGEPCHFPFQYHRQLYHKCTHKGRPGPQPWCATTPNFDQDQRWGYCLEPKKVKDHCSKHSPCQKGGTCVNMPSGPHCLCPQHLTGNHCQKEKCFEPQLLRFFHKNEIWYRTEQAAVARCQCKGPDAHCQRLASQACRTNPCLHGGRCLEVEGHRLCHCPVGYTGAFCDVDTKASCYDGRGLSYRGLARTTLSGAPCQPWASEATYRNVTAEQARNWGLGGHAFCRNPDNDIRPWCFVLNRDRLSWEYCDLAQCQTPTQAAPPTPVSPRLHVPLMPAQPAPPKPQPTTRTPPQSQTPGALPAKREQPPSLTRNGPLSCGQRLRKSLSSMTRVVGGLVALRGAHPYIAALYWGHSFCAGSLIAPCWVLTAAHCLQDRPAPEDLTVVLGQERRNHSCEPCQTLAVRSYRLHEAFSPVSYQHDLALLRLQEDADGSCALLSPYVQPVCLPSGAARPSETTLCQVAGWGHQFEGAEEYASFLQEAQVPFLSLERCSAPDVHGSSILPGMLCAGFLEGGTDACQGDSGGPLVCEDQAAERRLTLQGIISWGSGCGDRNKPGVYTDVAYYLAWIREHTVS

IC50 [2]: > 100 µM (inactive) | IC50 [3]: > 100 µM (inactive) | IC50 [4]: > 100 µM (inactive)
Structure (SMILES): O=C1Nc2ccc([N+](=O)[O-])cc2C12NNc1ccccc1O2 (stereo not drawn)

IC50 (Cannabinoid receptor 2 [10]): > 32 µM (inactive) | IC50 (Cannabinoid receptor 1 [11]): > 32 µM (inactive) | EC50 [12]: > 32 µM (inactive) | EC50 [13]: > 32 µM (inactive) | EC50 (Cannabinoid receptor 1 [14]): > 32 µM (inactive) | EC50 (Cannabinoid receptor 2 [15]): > 32 µM (inactive) | IC50 [16]: > 32 µM (inactive)
Structure (SMILES): O=C(Nc1cccc(S(=O)(=O)N2CCOCC2)c1)c1cc2c(s1)CCCC2

IC50 (Coagulation factor XII): > 50 µM (inactive)
Structure (SMILES): Cc1cccc(C)c1OCC(=O)N/N=C/c1cc2c(cc1[N+](=O)[O-])OCO2

More lines, now with the values behind:

Structure (SMILES): CCOC(=O)C(O)(c1ccc(NC(=S)NC(=O)c2ccc(Cl)cc2Cl)c(C)c1)C(F)(F)F (stereo not drawn)
EC50 [1]: 3.35 µM (active)

Structure (SMILES): CCOc1ccc(NC(=O)c2cnn3c(O)cc(C4CCN(C(=O)OC(C)(C)C)CC4)nc23)cc1
IC50 [5]: > 99 µM (inactive) | EC50 [6]: 4.22 µM (active)

Structure (SMILES): Cc1cc(C)n2nc3nc(N4CCCCC4)nc(-c4ccco4)c3c2n1
EC50 [7]: > 100 µM (inactive)

Structure (SMILES): COc1cc(C(=S)NCc2ccccc2)ccc1O
IC50 [8]: > 100 µM (inactive) | IC50 [9]: 0.665 µM (active)

Structure (SMILES): O=C(Cn1c(=O)c2cccn2c2cc(Br)cnc21)NCCCN1CCN(c2ccc3c(c2)OCO3)CC1
IC50 [17]: > 32 µM (inactive) | IC50 (Mu-type opioid receptor): > 32 µM (inactive) | IC50 [18]: 0.147 µM (active) | IC50 [19]: 3.81 µM (active) | IC50 [20]: 2.42 µM (active)

Structure (SMILES): CCNC(=S)N/N=C/c1cc(Br)cc(Br)c1OC
Absolute IC50 (CHOP) [21]: 10 µM
